Measurements as given in US11155550B2, “Histone deacetylase inhibitors and methods of use thereof” (Reaction Biology Corp., priority 2018, dated 2021).

Columns and labels:
Settings in all cases: Table 2; incubation time 10 min
Human HDAC9 = target: T1, Human HDAC9 (Homo sapiens, UniProt Q9UKV0); test: Biochemical HDAC enzymatic assay, HDAC9
T1 construct: amino acids 604-1066 with a C-terminal His tag; His tag (C); made in house; host or cells: baculovirus expression system
Protocol: (§1) Incubation time for HDAC1/2 is 120 min, and 10 min for other HDACs.
Human HDAC9 (GenBank Accession No. NM_178423), amino acids 604-1066 with a C-terminal His tag, MW=50.7 kDa, was expressed in a baculovirus expression system.
(§2) • I. Compound handling: Testing compounds were dissolved in 100% DMSO to a specific concentration. The serial dilution was conducted by epMotion 5070 in DMSO. • II. HDAC reaction buffer: 50 mM Tris-HCl, pH8.0, 137 mM NaCl, 2.7 mM KCl, and 1 mM MgCl2, Added fresh: 1 mg/ml BSA, 1% DMSO. • III. […] Delivered 2× Substrate Mixture (Fluorogenic HDAC Substrate and co-factor ([…] of Nicotinamide adenine dinucleotide (NAD^+) in all Sirt assay) in all reaction wells to initiate the reaction. Spin and shake. • d. Incubated for 1-2 hr. at 30° C. with seal. • e. Added Developer with Trichostatin A (or TMP269 or NAD^+) to stop the reaction and to generate fluorescent color. • f. Fluorescence was read (excitatory, 360; emission, 460) using the EnVision Multilabel Plate Reader (Perkin Elmer) • g. Endpoint reading was taken for analysis after the development reaches plateau. • V. Data Analysis: The percentages of enzyme activity (relative to DMSO controls) and IC50 values were calculated using the GraphPad Prism 4 program based on a sigmoidal dose-response equation. […]

Human HDAC11 = target: T2, Human HDAC11 (Homo sapiens, UniProt Q96DB2); test: Biochemical HDAC enzymatic assay, HDAC11
T2 construct: Human HDAC11 (full length); GST tag (N); made in house; host or cells: baculovirus expression system
T2 sequence (Q96DB2 1-347): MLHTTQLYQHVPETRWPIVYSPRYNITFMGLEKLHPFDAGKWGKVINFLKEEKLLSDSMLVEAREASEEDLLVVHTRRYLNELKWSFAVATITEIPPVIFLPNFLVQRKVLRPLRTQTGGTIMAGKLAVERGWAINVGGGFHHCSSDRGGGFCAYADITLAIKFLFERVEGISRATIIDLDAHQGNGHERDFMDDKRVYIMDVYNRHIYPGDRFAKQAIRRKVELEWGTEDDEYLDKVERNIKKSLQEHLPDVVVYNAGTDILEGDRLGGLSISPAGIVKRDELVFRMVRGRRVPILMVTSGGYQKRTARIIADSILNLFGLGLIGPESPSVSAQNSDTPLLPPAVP
Protocol: as §1
Human HDAC11 (full length) (GenBank Accession No. NM_024827) with a N-terminal GST tag, MW=66 kDa, was expressed in a baculovirus expression system.
as §2

Human HDAC7 = target: T3, Human HDAC7 (Homo sapiens, UniProt Q8WUI4); test: Biochemical HDAC enzymatic assay, HDAC7
T3 construct: (a.a. 518-end) with an N-terminal GST tag; GST tag (N); made in house; host or cells: baculovirus expression system
T3 sequence (Q8WUI4 479-952 limits assumed): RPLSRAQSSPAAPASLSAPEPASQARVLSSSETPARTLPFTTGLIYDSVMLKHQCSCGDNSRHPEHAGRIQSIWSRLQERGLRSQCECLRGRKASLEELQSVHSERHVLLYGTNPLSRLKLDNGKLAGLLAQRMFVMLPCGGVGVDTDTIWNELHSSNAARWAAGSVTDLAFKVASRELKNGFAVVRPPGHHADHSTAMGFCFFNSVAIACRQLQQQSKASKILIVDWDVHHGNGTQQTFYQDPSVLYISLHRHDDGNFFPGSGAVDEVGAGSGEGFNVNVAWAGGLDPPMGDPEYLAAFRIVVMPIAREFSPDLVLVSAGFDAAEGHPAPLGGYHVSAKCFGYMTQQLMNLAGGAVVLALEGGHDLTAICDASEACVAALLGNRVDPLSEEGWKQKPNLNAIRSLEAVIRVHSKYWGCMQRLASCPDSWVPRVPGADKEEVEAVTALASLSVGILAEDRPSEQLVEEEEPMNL
Protocol: as §1
Human HDAC7 (GenBank Accession No. AY302468), (a.a. 518-end) with an N-terminal GST tag, MW=78 kDa, was expressed in a baculovirus expression system.
as §2

Human HDAC5 = target: T4, Human HDAC5 (Homo sapiens, UniProt Q9UQL6); test: Biochemical HDAC enzymatic assay, HDAC5
T4 construct: full-length with an N-terminal GST tag, MW=150 kDa; GST tag (N); made in house; host or cells: baculovirus expression system
Protocol: as §1
Human HDAC5 (GenBank Accession No. NM_005474), full-length with an N-terminal GST tag, MW=150 kDa, was expressed in a baculovirus expression system.
as §2

Human HDAC4 = target: T5, Human HDAC4 (Homo sapiens, UniProt P56524); test: Biochemical HDAC enzymatic assay, HDAC4
T5 construct: amino acids 627-1085 with a N-terminal GST tag; GST tag (N); made in house; host or cells: baculovirus expression system
Protocol: as §1
Human HDAC4 (GenBank Accession No. NM_006037), amino acids 627-1085 with a N-terminal GST tag, MW=75.2 kDa, was expressed in a baculovirus expression system.
as §2

T1 sequence (Q9UKV0 604-1066 isoform Q9UKV0-5): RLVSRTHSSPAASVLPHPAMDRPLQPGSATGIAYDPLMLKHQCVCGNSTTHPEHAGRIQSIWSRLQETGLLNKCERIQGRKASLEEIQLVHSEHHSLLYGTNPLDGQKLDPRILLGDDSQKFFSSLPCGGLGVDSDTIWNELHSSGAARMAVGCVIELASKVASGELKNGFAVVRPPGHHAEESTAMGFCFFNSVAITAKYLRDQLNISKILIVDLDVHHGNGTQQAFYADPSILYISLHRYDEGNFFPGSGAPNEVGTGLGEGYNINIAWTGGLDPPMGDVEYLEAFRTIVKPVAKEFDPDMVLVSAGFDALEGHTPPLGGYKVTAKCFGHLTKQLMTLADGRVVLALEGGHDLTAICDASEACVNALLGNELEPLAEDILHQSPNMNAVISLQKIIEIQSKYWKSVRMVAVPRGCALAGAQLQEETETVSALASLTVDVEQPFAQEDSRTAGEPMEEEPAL
T5 sequence (P56524 627-1084 limits assumed): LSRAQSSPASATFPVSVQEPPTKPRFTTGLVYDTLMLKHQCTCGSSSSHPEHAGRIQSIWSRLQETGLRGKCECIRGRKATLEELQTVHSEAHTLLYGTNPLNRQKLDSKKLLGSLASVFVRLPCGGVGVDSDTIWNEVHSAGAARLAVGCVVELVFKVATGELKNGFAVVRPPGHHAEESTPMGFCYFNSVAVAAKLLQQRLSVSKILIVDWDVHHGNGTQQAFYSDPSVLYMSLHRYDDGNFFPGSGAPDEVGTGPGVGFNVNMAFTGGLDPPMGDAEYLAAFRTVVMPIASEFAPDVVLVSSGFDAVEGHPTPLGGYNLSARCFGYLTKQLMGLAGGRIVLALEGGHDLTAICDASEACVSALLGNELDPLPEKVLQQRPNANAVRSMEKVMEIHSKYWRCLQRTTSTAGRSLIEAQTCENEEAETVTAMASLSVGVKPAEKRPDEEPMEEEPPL
T4 sequence (Q9UQL6 whole entry): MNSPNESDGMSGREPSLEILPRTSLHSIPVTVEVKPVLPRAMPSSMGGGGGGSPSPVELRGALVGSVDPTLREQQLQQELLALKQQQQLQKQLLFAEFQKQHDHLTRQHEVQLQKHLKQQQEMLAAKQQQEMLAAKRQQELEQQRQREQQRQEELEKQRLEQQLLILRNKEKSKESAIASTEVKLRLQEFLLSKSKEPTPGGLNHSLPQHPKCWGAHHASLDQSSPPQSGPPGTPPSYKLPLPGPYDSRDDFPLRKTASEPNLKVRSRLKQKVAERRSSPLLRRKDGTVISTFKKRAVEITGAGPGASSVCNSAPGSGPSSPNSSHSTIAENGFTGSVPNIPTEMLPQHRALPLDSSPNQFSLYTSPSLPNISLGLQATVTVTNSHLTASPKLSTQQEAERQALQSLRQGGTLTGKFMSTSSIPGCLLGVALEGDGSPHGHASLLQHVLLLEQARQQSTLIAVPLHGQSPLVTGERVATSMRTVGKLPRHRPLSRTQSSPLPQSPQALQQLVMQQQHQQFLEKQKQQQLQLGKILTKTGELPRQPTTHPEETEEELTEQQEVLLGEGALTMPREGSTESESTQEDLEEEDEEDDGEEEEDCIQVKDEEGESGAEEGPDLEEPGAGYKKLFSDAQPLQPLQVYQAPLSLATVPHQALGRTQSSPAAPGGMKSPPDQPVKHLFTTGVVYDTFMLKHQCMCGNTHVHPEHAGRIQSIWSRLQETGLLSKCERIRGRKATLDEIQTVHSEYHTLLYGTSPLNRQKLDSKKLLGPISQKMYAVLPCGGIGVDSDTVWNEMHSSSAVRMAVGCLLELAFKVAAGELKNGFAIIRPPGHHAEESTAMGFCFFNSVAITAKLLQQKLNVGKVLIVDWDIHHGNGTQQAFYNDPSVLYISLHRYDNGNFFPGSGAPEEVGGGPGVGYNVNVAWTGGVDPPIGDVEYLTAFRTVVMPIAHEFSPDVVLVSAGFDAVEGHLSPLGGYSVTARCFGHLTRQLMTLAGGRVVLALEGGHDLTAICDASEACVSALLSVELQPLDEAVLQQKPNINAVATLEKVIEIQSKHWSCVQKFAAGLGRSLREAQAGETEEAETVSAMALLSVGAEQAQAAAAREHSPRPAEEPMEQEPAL

IC50 (Human HDAC9)	IC50 (Human HDAC11)	IC50 (Human HDAC7)	IC50 (Human HDAC5)	IC50 (Human HDAC4)	Structure (SMILES)
3.2 µM	4.1 µM	0.85 µM	1.55 µM	5 µM	CN(C)C(=O)N1CCC2(CC1)c1ccccc1C(=O)N2Cc1ccc(C(=O)NO)cc1 [Compound Example 11, 2-(4-(hydroxycarbamoyl)benzyl)-N,N-dimethyl-3-oxospiro[isoindoline-1,4′-piperidine]-1′-carboxamide]
6.9 µM	3.6 µM	3.1 µM	> 10 µM	> 10 µM	O=C(NO)c1ccc(CN2C(=O)c3ccccc3C23CCN(C2CC2)CC3)cc1 [Compound Example 12, 4-((1′-cyclopropyl-3-oxospiro[isoindoline-1,4′-piperidin]-2-yl)methyl)-N-hydroxybenzamide]
